Molecular target: T1, LdAAP3 (Leishmania donovani, UniProt Q86G79)
T1 construct: native transporter in intact mid-log promastigotes, not overexpressed; no construct
T1 sequence (Q86G79 1-480): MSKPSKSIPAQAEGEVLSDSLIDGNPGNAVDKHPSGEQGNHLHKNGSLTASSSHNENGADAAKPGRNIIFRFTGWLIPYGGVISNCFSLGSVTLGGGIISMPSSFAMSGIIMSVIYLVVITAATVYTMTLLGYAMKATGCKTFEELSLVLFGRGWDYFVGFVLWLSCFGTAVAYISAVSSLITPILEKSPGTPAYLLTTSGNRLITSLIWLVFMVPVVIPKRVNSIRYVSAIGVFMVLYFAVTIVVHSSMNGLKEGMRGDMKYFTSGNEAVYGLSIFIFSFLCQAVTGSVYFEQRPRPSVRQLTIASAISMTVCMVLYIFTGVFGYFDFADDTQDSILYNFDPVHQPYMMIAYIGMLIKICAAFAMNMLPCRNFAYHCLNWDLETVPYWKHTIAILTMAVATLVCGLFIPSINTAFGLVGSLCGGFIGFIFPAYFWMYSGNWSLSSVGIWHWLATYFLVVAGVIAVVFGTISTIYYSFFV
Experiment: inhibition of [3H]arginine uptake by intact promastigotes, rapid filtration
Format: cell-based
Details: read-out: Percent arginine transport inhibition
Description: inhibition of [3H]arginine uptake by intact promastigotes, rapid filtration on LdAAP3

Row | Compound | inhibition at 1000 µM [%] | also measured
1 | N=C(N)c1ccc(OCCCCCOc2ccc(C(=N)N)cc2)cc1 [compound 2, Pentamidine] | – | inhibition at 100 µM: 38%
2 | CNC(=N)NCCC[C@H](N)C(=O)O [compound 3, N-Methyl L-Arginine Acetate] | 66 | –
3 | N=C(N)NOCC[C@H](N)C(=O)O [compound 4, Canavanine] | – | inhibition at 500 µM: 40%
4 | NC(=O)NCCC[C@H](N)C(=O)O [compound 9, L-citrulline] | 10 | –
